Assay results taken from US20220204540A1, “ESTERS OF NON- AROMATIC HETEROCYCLIC COMPOUNDS HAVING A NEMATOCIDAL ACTIVITY, THEIR AGRONOMIC COMPOSITIONS AND USE THEREOF” (ISAGRO S.p.A., priority 2019, published 2022).

System: Meloidogyne sp.
Experiment: Nematocidal activity against Meloidogyne sp. on potted cucumber/tomato plants in greenhouse (soil treatment)
Type: in vivo
Settings: for effectiveness with respect to the reference products (CR1, CR2), in words: Table 6, cucumber, 2 kg/hectare; for effectiveness with respect to the reference products (CR1, CR2), in words / FRESH WEIGHT OF PLANT: 30 days after transplantation; for GALL INDEX (scale 0-10) / FRESH WEIGHT OF PLANT: cucumber cv Chinese Long; for GALL INDEX (scale 0-10): dose applied 2 kg/hectare (2000 g/hectare), survey 30 days after transplantation, Bridge-Page scale, 0 = 0% of root affected, 10 = 100% infested root; for FRESH WEIGHT OF PLANT: dose applied 2 kg/hectare, healthy blank 23 g, infested blank 3.5 g
Description: sDetermination of the Nematocidal Activity Against Meloidogyne sp.
The tests aimed at testing the nematicidal activity of the product under examination were carried out using inoculae taken from a farming of Meloidogyne sp. maintained on potted tomato and cucumber plants and grown in greenhouses.
To carry out the experiments, portions of roots having a good number of galls and soil were taken from the infested pots, in which larvae were present starting from the second stage of age.
New pots having a diameter of 15 cm were half filled with sterile soil. The portions of infested roots, previously cleaned, were placed on the same in order to be able to correctly assess the degree of infestation and ensure that each pot contains the same nematic charge. 200-300 g of infested soil were subsequently added, then covered with a thin layer of sterile soil.
The treatment was carried out by pouring 100 ml of solution on the surface of the soil, in which the product to be tested was dissolved.
Tomato or cucumber seedlings at the stage of two or three true leaves were transplanted in the pots thus prepared, one or seven days after application. Different cultivars of tomato or cucumber were used, having a different sensitivity to the parasite and different growth times. In particular, a variety of ornamental tomatoes (cv Microtom), whose seedlings are small in size and are able to reach the ripeness of the fruit in pots and under greenhouse conditions in about two months, was used for assessing the final production.
The containment capacity of the parasite was detected, 30 and 60 days after transplantation, considering the development of the root system (where 100% is the development reached by the healthy comparative root), the fresh weight of the plants treated expressed in grams, and the presence of galls on the roots. The latter was estimated using the infestation scale proposed by Bridge-Page, according to which the value zero corresponds to 0% of the root affected and the value 10 corresponds to 100% of infested root.
Table 6 indicates the results relating to the effectiveness on cucumbers, cv Chinese Long, treating with Compounds Nr. 23, 620, 1, 13, 5, 15, 16, 624 and 625 included in general formula (I) and the reference compounds CR1=Fluensulfone and CR2, described in JP 2000038379, instead of the compound having general formula (I), at a dose of 2000 g/hectare and effecting the survey 30 days after transplantation.

Compound	effectiveness with respect to the reference products (CR1, CR2), in words	GALL INDEX (scale 0-10)	FRESH WEIGHT OF PLANT [g]
CC(=O)N1CCC[C@H]1C(=O)OCCC(F)=C(F)F [Compound 624, N-acetyl-L-proline 3,4,4-trifluorobut-3-en-1-yl ester]	comparable or greater effectiveness	1.5	21
N-acetyl-1,3-thiadiazolidine-4-carboxylate of 3,4,4-trifluoro-3-butenyl [Compound 23]	comparable or greater effectiveness	2	23
O=S(=O)(CCC(F)=C(F)F)c1ncc(Cl)s1 [CR1, 5-chloro-2-(3,4,4-trifluoro-3-butenylsulfonyl)-thiazole, reference compound]		2	5.5
O=C(OCCC(F)=C(F)F)c1cccnc1 [CR2, pyridyl-3-carboxylate of 3,4,4-trifluoro-3-butenyl, reference compound]		2.9	17.5
O=C(OCCC(F)=C(F)F)[C@@H]1CCCN1C(=O)C(F)(F)F [Compound 625, N-trifluoroacetyl-L-proline 3,4,4-triflluorobut-3-en-1-yl ester]	comparable or greater effectiveness	2.5	22
CC(=O)N1C(C(=O)OCCC(F)=C(F)F)COC1(C)C(F)(F)F (stereo not shown) [Compound 16, (N-acetyl-2-trifluoromethyl-2-methyl)-1,3-oxazolidine-4-carboxylate of 3,4,4-trifluoro-3-butenyl]	comparable or greater effectiveness	2.9	18
